# Experimental data taken from US20180106727A1, “ULTRA-HIGH-SENSITIVE ASSAY OF PROTEIN AND NUCLEIC ACID AND KIT, AND NOVEL ENZYME SUBSTRATE” (priority 2011, published 2018).
# Read-outs that look alike come from different tables or passages of the source.
# Key:
# β-galactosidase = β-galactosidase (Escherichia coli, UniProt P00722); conditions: β-Gal assay
# Experimental: 0.1 M pyrophosphate buffer solution (pH 9.0); 1.2 mM thio-NAD; 3.6 mM NADH; 40 U/mL 3α-hydroxysteroid dehydrogenase
# To a flat-bottomed microplate well, 25 μL of a phosphate buffer solution (pH 7.3) containing the standard substance (β-galactosidase) in a range of 0 to 200 pg/ml was added, and subsequently, 25 μL of Reaction Test Solution A was added to the well, respectively. The reaction solution was mixed, and the microplate was incubated at 37° C. for 60 minutes. Then, 50 μL of Reaction Test Solution B was added to each well, respectively, and the absorbance was measured for 30 minutes using a 405 nm filter with a microplate reader (MTP-500 manufactured by CORONA CORPORATION) while warming the microplate to 37° C. The amount of the absorbance change for 30 minutes was plotted with respect to the concentrations of the standard substance.
# To a flat-bottomed microplate well, 50 μL of a phosphate buffer solution (pH 7.7) containing the standard substance (β-galactosidase) in a range of 0 to 250 pg/ml was added, and subsequently, 50 μL of Reaction Test Solution was added to each well, respectively. The absorbance was measured for 120 minutes using a 405 nm filter with a microplate reader (MTP-500 manufactured by CORONA CORPORATION) while warming the microplate to 37° C. The amount of the absorbance change for 120 minutes was plotted with respect to the concentrations of the standard substance.
# 0.1 M pyrophosphate buffer solution (pH 9.0); 4.8 mM thio-NAD; 0.4 mM NADH; 40 U/mL 3α-hydroxysteroid dehydrogenase
# To a flat-bottomed microplate well, 25 μL of a phosphate buffer solution (pH 7.5) containing the standard substance (β-galactosidase) in a range of 0 to 200 pg/mL was added, and subsequently, 25 μL of Reaction Test Solution A was added to the well, respectively. The reaction solution was mixed, and the microplate was incubated at 37° C. for 60 minutes. Then, 50 μL of Reaction Test Solution B was added to each well, respectively, and the absorbance was measured for 30 minutes using a 405 nm filter with a microplate reader (MTP-500 manufactured by CORONA CORPORATION) while warming the microplate to 37° C. The amount of the absorbance change for 30 minutes was plotted with respect to the concentrations of the standard substance.
# 0.1 M pyrophosphate buffer solution (pH 9.8); 1.2 mM thio-NAD; 1 mM NADH; 40 U/mL 3α-hydroxysteroid dehydrogenase
# To a flat-bottomed microplate well, 25 μL of a phosphate buffer solution (pH 7.5) containing the standard substance (β-galactosidase) in a range of 0 to 200 pg/mL was added, and subsequently, 25 μL of Reaction Test Solution A was added to the well, respectively. The reaction solution was mixed, and the microplate was incubated at 37° C. for 60 minutes.
# [1] = system: 3α-hydroxysteroid dehydrogenase; experiment: Rotation numbers of thio-NAD cycling reactions with 3α-hydroxyandrostanes; type: biochemical
# Experimental: The cycling system using thio-NAD(P) in the enzymatic cycling system is a unique cycling system that appeared relatively recently. With this system, the cycling is performed that is, thio-NAD(P)/thio-NAD(P)H using dehydrogenase (DH) with NAD(P)/NAD(P)H as a co-enzyme under conditions of coexistence of NAD(P)/NAD(P)H and its analog, and the amplification and the quantification are performed with thio-NAD(P)H (maximum absorption wavelength: 400 nm, molar absorption coefficient=11,900) as a substrate of dehydrogenase. The principle for measurement of the thio-NAD(P)cycling system is as described below.
# [2] = system: 3α-hydroxysteroid dehydrogenase; experiment: Dehydrogenation reaction of androsterone, reaction rate with thio-NAD versus NAD as co-enzyme; type: biochemical
# Excerpt: The substrate for the cycling is preferably those having fast enzyme reaction rate (having high activity for the substrate) and reacting even at a low concentration (having low Km value). In addition, a desirable property as the dehydrogenase is the reaction rate when using thio-NAD(P) as a co-enzyme. In the dehydrogenation reaction of androsterone by other many dehydrogenases, the reaction rate when thio-NAD is used as a co-enzyme is within several % of the reaction rate when NAD is used, while with 3α-hydroxysteroid dehydrogenase, the reaction rate with thio-NAD is about 59% of the reaction rate with NAD. Thus, 3α-hydroxysteroid dehydrogenase has a desirable property as the cycling enzyme of the present invention. Furthermore, widely used alkaline phosphatase (ALP) can be used as the labeling enzyme to be combined, and the combination with alkaline phosphatase is preferable also in a point of easy synthesis of a phosphate ester of an androsterone derivative at the position 3 that is a substrate of alkaline phosphatase.
# [3] = conventional substrate, no cycling method printed
# [4] = relative to 5α-Androsterone = 100
# [5] = thio-NAD cycling, compound as substrate
# Sequence of β-galactosidase (P00722 2-1024): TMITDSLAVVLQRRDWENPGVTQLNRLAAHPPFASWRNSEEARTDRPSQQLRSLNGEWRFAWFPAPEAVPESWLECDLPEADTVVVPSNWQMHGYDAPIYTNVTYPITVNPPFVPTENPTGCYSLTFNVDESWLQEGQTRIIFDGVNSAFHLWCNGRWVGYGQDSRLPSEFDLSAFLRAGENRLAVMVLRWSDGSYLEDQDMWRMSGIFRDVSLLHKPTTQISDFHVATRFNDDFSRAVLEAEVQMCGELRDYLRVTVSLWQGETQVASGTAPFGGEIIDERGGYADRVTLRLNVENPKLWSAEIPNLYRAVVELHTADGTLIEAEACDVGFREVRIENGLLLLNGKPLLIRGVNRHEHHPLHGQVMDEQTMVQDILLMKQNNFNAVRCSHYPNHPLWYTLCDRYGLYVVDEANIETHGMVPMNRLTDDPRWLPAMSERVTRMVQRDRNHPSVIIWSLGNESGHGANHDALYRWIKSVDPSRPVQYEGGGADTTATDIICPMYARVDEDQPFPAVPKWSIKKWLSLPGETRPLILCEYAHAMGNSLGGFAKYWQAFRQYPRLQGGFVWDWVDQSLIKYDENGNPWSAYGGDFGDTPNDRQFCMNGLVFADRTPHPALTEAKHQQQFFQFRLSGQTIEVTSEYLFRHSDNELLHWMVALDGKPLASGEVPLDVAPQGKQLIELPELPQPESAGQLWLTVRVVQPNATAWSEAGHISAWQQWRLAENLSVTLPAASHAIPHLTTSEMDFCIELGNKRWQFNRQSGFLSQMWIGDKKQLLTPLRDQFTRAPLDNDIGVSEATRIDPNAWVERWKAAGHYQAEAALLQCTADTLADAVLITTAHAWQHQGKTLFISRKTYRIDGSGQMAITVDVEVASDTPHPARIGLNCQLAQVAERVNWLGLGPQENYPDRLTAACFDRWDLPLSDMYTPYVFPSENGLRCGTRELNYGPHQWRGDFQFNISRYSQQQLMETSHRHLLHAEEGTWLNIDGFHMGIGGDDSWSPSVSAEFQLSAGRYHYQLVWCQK
smiles,measurement,setting,value
"Cc1cc(=O)oc2cc(O[C@@H]3O[C@H](CO)[C@H](O)[C@H](O)[C@H]3O)ccc12 [4-MUG, reference compound]",Detection limit,β-galactosidase; [3],9.76e-18 mol
same,Quantification limit,β-galactosidase; [3],3.25e-17 mol
"C=C1CC[C@H]2[C@@H]3CC[C@H]4C[C@H](O)CC[C@]4(C)[C@H]3CC[C@]12C [5α-17-CH2, 3α-Hydroxy-17-methylene-5α-Androstane]","Rotation number, Relative value (%)",[1]; [4],49%
same,Rotation number of cycling reaction,[1]; [5],308 Cycle/min
"C[C@H]1CC[C@H]2[C@@H]3CC[C@H]4C[C@H](O)CC[C@]4(C)[C@H]3CC[C@]12C [5α-17-CH3, 3α-Hydroxy-17β-methyl-5α-Androstane]","Rotation number, Relative value (%)",[1]; [4],32%
same,Rotation number of cycling reaction,[1]; [5],200 Cycle/min
"C[C@@]12CCC[C@H]1[C@@H]1CC[C@H]3C[C@H](O)CC[C@]3(C)[C@H]1CC2 [5α-17-deoxo, 3α-Hydroxy-5α-Androstane]","Rotation number, Relative value (%)",[1]; [4],39%
same,Rotation number of cycling reaction,[1]; [5],241 Cycle/min
"C[C@]12CC[C@@H](O[C@@H]3O[C@H](CO)[C@H](O)[C@H](O)[C@H]3O)C[C@@H]1CC[C@@H]1[C@@H]2CC[C@]2(C)C(=O)CC[C@@H]12 [5α-AG, 5α-androsterone 3-β-galactoside]",Detection limit,β-galactosidase; Two-steps,3.89e-19 mol
same,Quantification limit,β-galactosidase; Two-steps,1.3e-18 mol
"C[C@]12CC[C@@H](O)C[C@@H]1CC[C@@H]1[C@@H]2CC[C@]2(C)C(=O)CC[C@@H]12 [5α-Androsterone, reference compound]","Rotation number, Relative value (%)",[1],100%
"C[C@]12CCC(=O)C[C@@H]1CC[C@@H]1[C@@H]2CC[C@]2(C)[C@@H](O)CC[C@@H]12 [5α-DHT, 5α-Dihydrotestosterone, reference compound]",Rotation number of cycling reaction,[1],535 Cycle/min
same,"Rotation number, Relative value (%)",[1],86%
"C[C@H]1CC[C@H]2[C@@H]3CC[C@@H]4C[C@H](O)CC[C@]4(C)[C@H]3CC[C@]12C [5β-17-CH3, 3α-Hydroxy-17β-methyl-5β-Androstane]","Rotation number, Relative value (%)",[1]; [4],18%
same,Rotation number of cycling reaction,[1]; [5],114 Cycle/min
CO[C@H]1CC[C@H]2[C@@H]3CC[C@@H]4C[C@H](O)CC[C@]4(C)[C@H]3CC[C@]12C [5β-17β-OCH3],"Rotation number, Relative value (%)",[1]; [4],74%
same,Rotation number of cycling reaction,[1]; [5],458 Cycle/min
"C[C@]12CC[C@@H](O[C@@H]3O[C@H](CO)[C@H](O)[C@H](O)[C@H]3O)C[C@H]1CC[C@@H]1[C@@H]2CC[C@]2(C)C(=O)CC[C@@H]12 [5β-AG, 5β-Androsterone-3β-D-Galactoside]",Detection limit,β-galactosidase; One-step,3.31e-19 mol
same,Quantification limit,β-galactosidase; One-step,1.1e-18 mol
same,Detection limit,β-galactosidase; Two-steps,7.48e-20 mol
same,Quantification limit,β-galactosidase; Two-steps,2.49e-19 mol
"C[C@]12CC[C@@H](O)C[C@H]1CC[C@@H]1[C@@H]2CC[C@]2(C)C(=O)CC[C@@H]12 [5β-Androsterone, reference compound]",Rotation number of cycling reaction,[1],384 Cycle/min
same,"Rotation number, Relative value (%)",[1],62%
CO[C@H]1CC[C@H]2[C@@H]3CC[C@@H]4C[C@H](O[C@@H]5O[C@H](CO)[C@H](O)[C@H](O)[C@H]5O)CC[C@]4(C)[C@H]3CC[C@]12C [17-OMe 5β-AG],Detection limit,β-galactosidase; One-step,3.21e-19 mol
same,Quantification limit,β-galactosidase; One-step,1.07e-18 mol
same,Detection limit,β-galactosidase; Two-steps,1.09e-19 mol
same,Quantification limit,β-galactosidase; Two-steps,3.64e-19 mol
"C[C@H](CCC(=O)NCC(=O)O)[C@H]1CC[C@H]2[C@@H]3[C@H](O)C[C@@H]4C[C@H](O)CC[C@]4(C)[C@H]3CC[C@]12C [Glycochenodeoxycholate, Sodium glycochenodoxycholate, reference compound]","Rotation number, Relative value (%)",[1]; [4],21%
same,Rotation number of cycling reaction,[1]; [5],129 Cycle/min
"O=[N+]([O-])c1ccccc1O[C@@H]1O[C@H](CO)[C@H](O)[C@H](O)[C@H]1O [ONPG, o-Nitrophenyl β-D-Galactopyranoside, reference compound]",Detection limit,β-galactosidase; [3],4.5e-17 mol
same,Quantification limit,β-galactosidase; [3],1.5e-16 mol
"C[C@]12CC[C@@H](OP(=O)(O)O)C[C@@H]1CC[C@@H]1[C@@H]2CC[C@]2(C)C(=O)CC[C@@H]12 [androsterone 3-phosphate, reference compound]",Effect of the substrate on the cycling reaction,[1],inhibition of the substrate on the cycling reaction
NC(=S)c1ccc[n+]([C@@H]2O[C@H](COP(=O)([O-])OP(=O)(O)OC[C@H]3O[C@@H](n4cnc5c(N)ncnc54)[C@H](O)[C@@H]3O)[C@@H](O)[C@H]2O)c1 [thio-NAD],Reaction rate with thio-NAD relative to the reaction rate with NAD,[2],about 59%
